The target of assay [1] is EZH2 enzyme complex (Homo sapiens (Human), UniProt Q15910). Briefly: Test on EZH2 inhibitory activity (TR-FRET). The conditions noted are these: EZH2 enzyme complex 25 ng/uL, histone H3 peptide 4 uM, SAM 2 uM, 300 min; read-out: IC50 of EZH2 inhibition. The class given is biochemical.
Assay [2] relates to WSU-DLCL2. The assay is described as follows: Methylated lysine of histone-H3 (H3K27Me3) detection by ELISA, WSU-DLCL2 cells. Type of assay: cell-based. The settings on record: WSU-DLCL2, 7 days treatment, H3K27Me3 normalized to total histone-3, read-out: IC50 of cell methylation, WSU-DLCL2. The procedure, abridged:
(§1)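 Cells were treated 7 days with compound (4-fold dilutions, 20 uM-0.009 nM), then lysed hypotonically with NaCl adjusted to ~100 mM. Lysate-coated plates were probed by ELISA for H3K27Me3 and total H3 (TMB, A450). Methylation signal was normalised to total H3 before curve fitting.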

In assay [3] the test system is Pfeiffer. Briefly: Methylated lysine of histone-H3 (H3K27Me3) detection by ELISA, Pfeiffer cells. Type of assay: cell-based, human. The settings on record: 7 days treatment, H3K27Me3 normalized to total histone-3, read-out: IC50 of cell methylation, Pfeiffer. The method in brief: as §1

The results in this text go back to US12390472B2 (SUZHOU SINOVENT PHARMACEUTICALS CO., LTD., priority 2018, dated 2025).

Read-outs that look alike come from different tables or passages of the source.

EZH2 enzyme complex, sequence (Q15910 whole entry): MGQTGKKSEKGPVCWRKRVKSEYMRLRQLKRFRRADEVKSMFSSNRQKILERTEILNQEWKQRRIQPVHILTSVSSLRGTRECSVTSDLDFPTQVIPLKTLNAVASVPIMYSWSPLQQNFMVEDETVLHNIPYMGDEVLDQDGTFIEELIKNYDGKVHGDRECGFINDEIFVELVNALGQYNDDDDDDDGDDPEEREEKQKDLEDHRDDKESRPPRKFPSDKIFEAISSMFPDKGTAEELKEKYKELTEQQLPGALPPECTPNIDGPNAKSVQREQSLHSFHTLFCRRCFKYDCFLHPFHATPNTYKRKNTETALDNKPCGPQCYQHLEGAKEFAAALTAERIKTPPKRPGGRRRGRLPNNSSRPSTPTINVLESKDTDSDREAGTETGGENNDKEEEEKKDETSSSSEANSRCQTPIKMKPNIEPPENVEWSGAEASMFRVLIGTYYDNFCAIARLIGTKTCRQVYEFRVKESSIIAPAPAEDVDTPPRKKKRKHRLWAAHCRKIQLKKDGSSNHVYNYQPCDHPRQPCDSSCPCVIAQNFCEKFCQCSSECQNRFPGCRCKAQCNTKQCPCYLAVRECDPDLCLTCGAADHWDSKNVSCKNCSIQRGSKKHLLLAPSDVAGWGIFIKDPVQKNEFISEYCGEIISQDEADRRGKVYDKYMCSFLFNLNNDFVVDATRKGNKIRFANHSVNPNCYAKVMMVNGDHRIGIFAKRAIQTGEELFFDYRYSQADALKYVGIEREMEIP
EZH2 enzyme complex, sequence (O75530 whole entry partner): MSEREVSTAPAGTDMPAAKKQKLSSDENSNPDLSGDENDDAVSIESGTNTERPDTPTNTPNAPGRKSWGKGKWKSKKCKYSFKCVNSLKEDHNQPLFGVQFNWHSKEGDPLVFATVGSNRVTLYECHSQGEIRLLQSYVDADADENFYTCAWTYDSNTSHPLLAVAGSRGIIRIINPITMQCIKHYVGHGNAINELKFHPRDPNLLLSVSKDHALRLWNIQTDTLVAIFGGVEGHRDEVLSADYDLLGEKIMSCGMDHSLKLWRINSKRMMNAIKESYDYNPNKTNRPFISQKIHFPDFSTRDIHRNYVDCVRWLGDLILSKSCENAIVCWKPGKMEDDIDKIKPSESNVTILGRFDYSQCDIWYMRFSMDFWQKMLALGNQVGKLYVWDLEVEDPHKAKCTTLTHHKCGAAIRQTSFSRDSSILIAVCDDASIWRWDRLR
EZH2 enzyme complex, sequence (Q15022 whole entry partner): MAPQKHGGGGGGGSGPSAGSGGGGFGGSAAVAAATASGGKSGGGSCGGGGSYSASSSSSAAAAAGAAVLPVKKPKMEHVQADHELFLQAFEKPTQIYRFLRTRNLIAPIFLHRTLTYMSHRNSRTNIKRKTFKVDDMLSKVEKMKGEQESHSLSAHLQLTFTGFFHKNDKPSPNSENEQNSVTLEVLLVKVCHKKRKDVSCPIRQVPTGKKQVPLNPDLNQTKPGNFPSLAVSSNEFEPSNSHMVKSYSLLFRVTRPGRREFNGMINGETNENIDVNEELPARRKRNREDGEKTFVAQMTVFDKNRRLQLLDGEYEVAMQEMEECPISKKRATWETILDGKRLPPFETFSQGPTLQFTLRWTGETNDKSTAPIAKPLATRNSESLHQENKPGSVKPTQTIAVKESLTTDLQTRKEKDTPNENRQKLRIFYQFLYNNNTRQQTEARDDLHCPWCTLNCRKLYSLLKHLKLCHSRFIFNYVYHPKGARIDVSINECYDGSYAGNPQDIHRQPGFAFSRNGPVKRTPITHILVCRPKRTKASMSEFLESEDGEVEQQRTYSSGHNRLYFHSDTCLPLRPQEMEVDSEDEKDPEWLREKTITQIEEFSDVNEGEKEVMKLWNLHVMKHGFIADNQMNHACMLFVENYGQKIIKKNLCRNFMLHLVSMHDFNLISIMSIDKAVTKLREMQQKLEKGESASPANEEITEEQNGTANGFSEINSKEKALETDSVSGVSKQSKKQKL

Turning to `CCN(c1cc(O[C@H]2C[C@H](N3CCC(C)CC3)C2)cc(C(=O)NCc2c(C)cc(C)[nH]c2=O)c1C)C1CCOCC1` [Example 37, N-((4,6-dimethyl-2-oxo-1,2-dihydropyridin-3-yl)methyl)-3-(ethyl(tetrahydro-2H-pyran-4-yl)amino)-2-methyl-5-(trans-3-(4-methylpiperidin-1-yl)cyclobutoxy)benzamide], the IC50 in assay [1] was under 10 nM; in assay [2] (Homo sapiens, WSUDLCL2, 168 h), 50 to 500 nM; in assay [3] (Homo sapiens, 168 h), under 50 nM.

Turning to `CCN(c1cc(O[C@H]2C[C@@H](N3C[C@@H](C)O[C@@H](C)C3)C2)cc(C(=O)NCc2c(C)cc(C)[nH]c2=O)c1C)[C@@H]1C[C@@H](C)O[C@@H](C)C1` [Example 38, N-((4,6-dimethyl-2-oxo-1,2-dihydropyridin-3-yl)methyl)-5-((1S,3S)-3-((2S,6R)-2,6-dimethylmorpholinyl)cyclobutoxy)-3-(((2R,4s,6S)-2,6-dimethyltetrahydro-2H-pyran-4-yl)(ethyl)amino)-2-methylbenzamide], the IC50 is 100 to 1000 nM in assay [1]; over 1000 nM in assay [2] (Homo sapiens, WSUDLCL2, 168 h); 500 to 1000 nM in assay [3] (Homo sapiens, 168 h).

With `CCN(c1cc(O[C@H]2C[C@H](N3C[C@@H](C)O[C@@H](C)C3)C2)cc(C(=O)NCc2c(C)cc(C)[nH]c2=O)c1C)[C@@H]1C[C@@H](C)O[C@@H](C)C1` [Example 39, N-((4,6-dimethyl-2-oxo-1,2-dihydropyridin-3-yl)methyl)-5-(trans-3-(cis-2,6-dimethylmorpholinyl)cyclobutoxy)-3-((trans-2,6-dimethyltetrahydro-2H-pyran-4-yl)(ethyl)amino)-2-methylbenzamide], the IC50 in assay [1] was 100 to 1000 nM; in assay [2] (Homo sapiens, WSUDLCL2, 168 h), over 1000 nM; in assay [3] (Homo sapiens, 168 h), 500 to 1000 nM.

As for `CCN(c1cc(O[C@H]2C[C@H](N3C[C@@H](C)O[C@@H](C)C3)C2)cc(C(=O)NCc2c(C)cc(C)[nH]c2=O)c1C)C1CCOC1` (stereo partly drawn) [Example 46, N-((4,6-dimethyl-2-oxo-1,2-dihydropyridin-3-yl)methyl)-5-(trans-3-(cis-2,6-dimethylmorpholinyl)cyclobutoxy)-3-(ethyl(tetrahydrofuran-3-yl)amino)-2-methylbenzamide], the 50% inhibitory concentration (IC50) in assay [1] was under 10 nM; in assay [2] (Homo sapiens, WSUDLCL2, 168 h), 50 to 500 nM; in assay [3] (Homo sapiens, 168 h), 500 to 1000 nM.

As for `CCN(c1cc(O[C@H]2C[C@H](N3C[C@@H](C)O[C@@H](C)C3)C2)cc(C(=O)NCc2c(C)cc(C)[nH]c2=O)c1Cl)C1CCOCC1` [Example 48, 2-chloro-N-((4,6-dimethyl-2-oxo-1,2-dihydropyridin-3-yl)methyl)-5-(trans-3-(cis-2,6-dimethylmorpholinyl)cyclobutoxy)-3-(ethyl(tetrahydro-2H-pyran-4-yl)amino)benzamide], the IC50 in assay [1] was 10 to 100 nM; in assay [2] (Homo sapiens, WSUDLCL2, 168 h), 50 to 500 nM; in assay [3] (Homo sapiens, 168 h), over 1000 nM.

`CCN(c1cc(O[C@H]2C[C@H](N3CC4CCC(C3)O4)C2)cc(C(=O)NCc2c(C)cc(C)[nH]c2=O)c1Cl)C1CCOCC1` [Example 49, 5-(trans-3-(8-oxa-3-azabicyclo[3.2.1]octan-3-yl)cyclobutoxy)-2-chloro-N-((4,6-dimethyl-2-oxo-1,2-dihydropyridin-3-yl)methyl)-3-(ethyl(tetrahydro-2H-pyran-4-yl)amino)benzamide]: the IC50 is 10 to 100 nM in assay [1]; 50 to 500 nM in assay [2] (Homo sapiens, WSUDLCL2, 168 h); over 1000 nM in assay [3] (Homo sapiens, 168 h).

As for `CCN(c1cc(O[C@H]2C[C@H](N3CCOCC3)C2)cc(C(=O)N(C)Cc2c(C)cc(C)[nH]c2=O)c1C)C1CCOCC1` [Example 51, N-((4,6-dimethyl-2-oxo-1,2-dihydropyridin-3-yl)methyl)-3-(ethyl(tetrahydro-2H-pyran-4-yl)amino)-N,2-dimethyl-5-(trans-3-morpholinylcyclobutoxy)benzamide], the IC50 in assay [1] is 100 to 1000 nM; in assay [2] (Homo sapiens, WSUDLCL2, 168 h), over 1000 nM; in assay [3] (Homo sapiens, 168 h) it was over 1000 nM.

For the compound `CCN(c1cc(O[C@H]2C[C@H](CN3C[C@@H](C)O[C@@H](C)C3)C2)cc(C(=O)NCc2c(C)cc(C)[nH]c2=O)c1Cl)C1CCOCC1` [Example 53, 2-chloro-N-((4,6-dimethyl-2-oxo-1,2-dihydropyridin-3-yl)methyl)-5-(trans-3-((cis-2,6-dimethylmorpholinyl)methyl)cyclobutoxy)-3-(ethyl(tetrahydro-2H-pyran-4-yl)amino)benzamide], the IC50 lay in the range of 10 to 100 nM in assay [1], 50 to 500 nM in assay [2] and 500 to 1000 nM in assay [3].

Turning to `CCN(c1cc(O[C@H]2C[C@@H](N3CCC(C)CC3)C2)cc(C(=O)NCc2c(C)cc(C)[nH]c2=O)c1C)C1CCOCC1` [Example 56, N-((4,6-dimethyl-2-oxo-1,2-dihydropyridin-3-yl)methyl)-3-(ethyl(tetrahydro-2H-pyran-4-yl)amino)-2-methyl-5-(cis-3-(4-methylpiperidin-1-yl)cyclobutoxy)benzamide], the IC50 lay in the range of 10 to 100 nM in assay [1]; 50 to 500 nM in assay [2] (Homo sapiens, WSUDLCL2, 168 h); 50 to 500 nM in assay [3] (Homo sapiens, 168 h).

In the case of `Cc1cc(C)c(CNC(=O)c2cc(O[C@H]3C[C@H](N4C[C@@H](C)O[C@@H](C)C4)C3)cc(NC3CCOCC3)c2C)c(=O)[nH]1` [Example 57, N-((4,6-dimethyl-2-oxo-1,2-dihydropyridin-3-yl)methyl)-5-(trans-3-(cis-2,6-dimethylmorpholino)cyclobutoxy)-2-methyl-3-((tetrahydro-2H-pyran-4-yl)amino)benzamide], the IC50 was over 1000 nM in assay [1]; over 1000 nM in assay [2] (Homo sapiens, WSUDLCL2, 168 h); over 1000 nM in assay [3] (Homo sapiens, 168 h).

In the case of `Cc1cc(C)c(CNC(=O)c2cc(O[C@H]3C[C@H](N4C[C@@H](C)O[C@@H](C)C4)C3)cc(NC3CCOC3)c2C)c(=O)[nH]1` (stereo partly drawn) [Example 58, N-((4,6-dimethyl-2-oxo-1,2-dihydropyridin-3-yl)methyl)-5-(trans-3-(cis-2,6-dimethylmorpholino)cyclobutoxy)-2-methyl-3-((tetrahydrofuran-3-yl)amino)benzamide], the IC50 in assay [1] is over 1000 nM; in assay [2] (Homo sapiens, WSUDLCL2, 168 h) it was over 1000 nM; in assay [3] (Homo sapiens, 168 h) it was over 1000 nM.

`CCN(c1cc(C2CC2CO)cc(C(=O)NCc2c(C)cc(C)[nH]c2=O)c1C)C1CCOCC1` (stereo not drawn) [Example 71, N-((4,6-dimethyl-2-oxo-1,2-dihydropyridin-3-yl)methyl)-3-(ethyl(tetrahydro-2H-pyran-4-yl)amino)-5-(2-(hydroxymethyl)cyclopropyl)-2-methylbenzamide]: the 50% inhibitory concentration (IC50) in assay [1] is 10 to 100 nM; in assay [2] (Homo sapiens, WSUDLCL2, 168 h), 50 to 500 nM; in assay [3] (Homo sapiens, 168 h), under 50 nM.

Regarding `CCN(c1cc(C2CC2CN2CCOCC2)cc(C(=O)NCc2c(C)cc(C)[nH]c2=O)c1C)C1CCOCC1` (stereo not drawn) [Example 72, N-((4,6-dimethyl-2-oxo-1,2-dihydropyridin-3-yl)methyl)-3-(ethyl(tetrahydro-2H-pyran-4-yl)amino)-2-methyl-5-(2-(morpholinylmethyl)cyclopropyl)benzamide], the IC50 in assay [1] is 10 to 100 nM; in assay [2] it was 50 to 500 nM; in assay [3], under 50 nM.

Regarding `CCN(c1cc(C2CC2CN2CCNCC2)cc(C(=O)NCc2c(C)cc(C)[nH]c2=O)c1C)C1CCOCC1` (stereo not drawn) [Example 73, N-((4,6-dimethyl-2-oxo-1,2-dihydropyridin-3-yl)methyl)-3-(ethyl(tetrahydro-2H-pyran-4-yl)amino)-2-methyl-5-(2-(piperazin-1-ylmethyl)cyclopropyl)benzamide], the IC50 in assay [1] is 10 to 100 nM; in assay [2] (Homo sapiens, WSUDLCL2, 168 h) it was 50 to 500 nM; in assay [3] (Homo sapiens, 168 h), 50 to 500 nM.
